Assay results from publication PMC11642994, “AGC family kinase of Entamoeba histolytica: Decoding the members biochemically” (PLOS Pathogens, 2024).
Several values for one entry are separate records, joined by “and”; a condition that tells them apart may be missing. Equal entries are not always repeated. Entries after “also recorded” stand apart in the source; their conditions may differ. Where two headings read alike, the source gives them in different places.

Legend:
EhAGCK2 = assay: ADP-Glo kinase assay with peptide substrates / ATP, EhAGCK2 WT; format: biochemical, Entamoeba histolytica; settings: for ATP Vmax / Km: mean ± SE, n = 6
Experimental: (§1) The phosphorylation activity of kinases was measured using the ADP-Glo kinase assay kit according to the manufacturer’s protocol with few modifications (Promega, Madison, WI, Catalogue number V6930). Assays were performed in a Corning 384-well low-volume white round bottom polystyrene NBS microplate with a total volume of 32 μl in the ratio of 1:1:2, corresponding to the kinase reaction, ADP-Glo reagent, and detection reagent, respectively. The kinase reaction was performed in an 8 μl volume containing 4 μl of purified protein kinases, 2 μl of peptide substrate, and 2 μl of ATP (Promega, Madison, WI). The working concentration of all the kinase reaction components was prepared in the standard kinase assay buffer (40 mM Tris-Cl pH 7.5, 20 mM MgCl2, 2 mM DTT). Along with other controls, only buffer-negative controls without protein kinase, substrate, and ATP were included in the kinase assay. Kinase assay reactions in each well were started immediately by adding ATP. The reactions were allowed to continue for 1 h at 30°C in the incubator chamber without shaking. The kinase assay was quenched by adding 8 μl of ADP-Glo reagent in each well before adding ADP-Glo reagent. The reaction plate was incubated for 5 min at room temperature. Termination reactions were allowed to proceed for 40 min at room temperature. ADP-Glo reagent, in addition to quenching the reaction, scavenges the unconsumed ATP from the reaction. In the final step of the ADP-Glo kinase assay, 16 μl of kinase detection reagent was added to each well and incubated for 40 min to simultaneously convert ADP to ATP and allow the newly synthesised ATP to be measured using a luciferase/luciferin reaction. The luminescent signal generated was measured using a SpectraMax i3x Multi-Mode Microplate Reader (Molecular Devices), and it was proportional to the ADP concentration produced and correlated with the kinase activity.
(§2) Standard curves were constructed by plotting the saturating relative light units (RLU) for each sample against the concentration of the peptide substrate or ATP in the reaction, following the previously reported method. The slope of the standard curve was determined and used to convert the reaction rate velocities. Velocities were expressed in μM/min by calculating the rate of reaction (DY/DX) for each reaction, where DY represented the difference between the luminescence measurements at the beginning and end of the reaction, and DX denoted the duration of the reaction (total time of reaction: 60 min). The converted velocities were plotted against the substrate concentration, and the data were fitted to the Michaelis-Menten equation to determine Km and Vmax.
(§3) The kinase assay data presented here are the mean ± standard error (SE) of n≥3 of three independent experiments. The Km and Vmax were determined from a direct, nonlinear fit of [V] versus [S] plots using the Michaelis-Menten equation: V=Vmax[S]/Km+[S] using the GraphPad Prism 9.0 software package (GraphPad Software Inc., CA, USA). Additionally, the Microscale Thermophoresis (MST) experiments were conducted using the Monolith NT.11.5 instrument, with triplicate runs. Statistical comparisons were made using Student’s t-test. Differences in mean values were considered significant at *p-value≤0.05, **p-value≤0.01, ***p-value≤0.001, ****p-value≤0.0001.

EhAGCK1 = assay: ADP-Glo kinase assay with peptide substrates / ATP, EhAGCK1 WT; format: biochemical, Entamoeba histolytica; settings: for phosphorylation by EhAGCK1 WT (words): 1 hr
Experimental: as §1, §2, §3

autophosphorylation = assay: ATP biotinylation kinase assay (autophosphorylation, SA-HRPO western blot); format: biochemical, Entamoeba histolytica; settings: 4 μM kinase (EhPDK1 2 μM), 20 μM biotin-labelled ATP, 40 mM Tris-Cl pH 7.8, 10 mM MgCl2, 2 mM DTT, 30°C, 1 h
Experimental: ATP biotinylation assays were performed in the presence of 4 μM of EhAGCK1 (WT, T275D, and KDD1) and EhAGCK2 (WT, T274D, and KDD2) along with 2 μM of wild-type EhPDK1 in the presence of activation buffer 40 mM Tris-Cl pH 7.8, 10 mM MgCl2, and 2 mM DTT and incubated at 30°C for 1 h. The reaction was triggered by adding 20 μM biotin-labelled ATP (Catalogue NU-970-BIO, Jena Bioscience). 20 μl of the reaction was collected at the indicated time point and quenched by the addition of 4x SDS-loading dye. After gel electrophoresis, phosphorylated proteins were visualized by immunoblotting using HRPO-conjugated streptavidin (Invitrogen).
ATP biotinylated protein samples were separated by SDS-PAGE and then electro-transferred to PVDF membrane (Pall life sciences). The membrane was blocked overnight by 5% BSA (G-Biosciences) in TBS-T (TBS with 0.1% Tween 20) and stained with Ponceau S. This blocking process was done overnight at 4°C. The membrane was then incubated with 1:1000 dilution of HRPO-conjugated streptavidin (Invitrogen) at room temperature. Following antibody incubation, the blots were carefully cleaned with TBS-T. Band detection was carried out with a Millipore ECL kit.

HsGSK3 peptide = assay: ADP-Glo kinase activity of kinase variants with human GSK3 peptide in MgCl2 and MnCl2 buffers; format: biochemical; settings: for kinase activity with HsGSK3 peptide in Mg2+ / without Mn2+ (words): kinase 0-80 μM
Experimental: as §1, §3

[1] = S3 Table, ADP-Glo, Michaelis-Menten fit at various substrate concentrations, 20 μM kinase, 250 μM ATP, read-out: Peptide Km in the presence of EhAGCK2
[2] = S3 Table, ADP-Glo, Michaelis-Menten fit at various substrate concentrations, 20 μM kinase, 250 μM ATP, mean ± SE, n = 6, read-out: Peptide Km in the presence of EhAGCK1

With `Nc1ncnc2c1ncn2[C@@H]1O[C@H](COP(=O)(O)OP(=O)(O)OP(=O)(O)O)[C@@H](O)[C@H]1O` [ATP, reference compound] the “ATP Vmax” value (EhAGCK2; EhAGCK2 WT 20 μM, 50 μM EhCoactosin peptide substrate, ATP 0-1000 μM) was 444.4 ± 18.5 µM/min, the Km (EhAGCK2; EhAGCK2 WT 20 μM, 50 μM EhCoactosin peptide substrate, ATP 0-1000 μM, read-out: ATP Km) was 92.1 ± 16 µM and the “ATP Vmax” value (EhAGCK2; EhAGCK2 WT 20 μM, 50 μM HsGSK3 peptide substrate, ATP 0-1000 μM) was 271.4 ± 30.5 µM/min. The Km (EhAGCK2; EhAGCK2 WT 20 μM, 50 μM HsGSK3 peptide substrate, ATP 0-1000 μM, read-out: ATP Km) was 292 µM and 291 µM, the Km (EhAGCK1; EhAGCK1 WT 20 μM, 50 μM EhRhoGEF peptide substrate, ATP 0-1000 μM, mean ± SE, n = 6, read-out: ATP Km) was 125 ± 16 µM and the “ATP Vmax” value (EhAGCK1; EhAGCK1 WT 20 μM, 50 μM HsGSK3 peptide substrate, ATP 0-1000 μM, mean ± SE, n = 6) was 260.7 ± 9.4 µM/min. It also gave a Km (EhAGCK1; EhAGCK1 WT 20 μM, 50 μM HsGSK3 peptide substrate, ATP 0-1000 μM, mean ± SE, n = 6, read-out: ATP Km) of 242 ± 22.2 µM.

“ELDSDEEQKELER [Filamin-A interacting protein]” was tested, and the Km (EhAGCK2; [1]) was 0.147 µM, the “phosphorylation by EhAGCK1 WT (words)” value (EhAGCK1; 20 μM EhAGCK1 WT, 250 μM ATP) was “recognized as substrates by EhAGCK1 WT” and the “phosphorylation by EhAGCK1 WT (words)” value (EhAGCK1; 20 μM EhAGCK1 WT, 250 μM ATP, listed as Filamin-A-interacting protein) was “specifically phosphorylated”. For the same molecule, the Km (EhAGCK1; ADP-Glo luminescence, 20 μM EhAGCK1 WT, 250 μM ATP, peptide 0-200 μM, 30°C, 60 min, standard buffer 40 mM Tris-Cl pH 7.5, 20 mM MgCl2, 2 mM DTT, Michaelis-Menten fit, mean ± SE, n = 6, read-out: Km (peptide substrate)) was 3.28 ± 1.19 µM and the Km (EhAGCK1; [2]) was 3.28 ± 1.19 µM.

“KSPTIDEIK [Hypothetical protein, peptide 133-141 of E. histolytica Hypothetical protein (EHI_025430)]” was tested, and the Km (EhAGCK2; [1]) was 0.197 ± 0.08 µM, the “phosphorylation by EhAGCK1 WT (words)” value (EhAGCK1; 20 μM EhAGCK1 WT, 250 μM ATP) was “notable phosphorylation by EhAGCK1” and the Km (EhAGCK1; [2]) was 2.56 ± 0.99 µM.

“KTITPVVEDPCER [HEAT repeat domain-containing protein, peptide 661-673 of E. histolytica HEAT repeat domain-containing protein (EHI_050150)]” was tested, and the Km (EhAGCK2; [1]) was 0.262 ± 0.2 µM, the “phosphorylation by EhAGCK1 WT (words)” value (EhAGCK1; 20 μM EhAGCK1 WT, 250 μM ATP) was “notable phosphorylation by EhAGCK1” and the Km (EhAGCK1; [2]) was 3.62 ± 1.34 µM.

“MAGIQLADEVTSVYNDF KLSHKYRYIV [Actophorin, peptide 1-27 of E. histolytica Actophorin (EHI_197480)]” was tested, and the Km (EhAGCK2; [1]) was 0.258 ± 0.09 µM and the Km (EhAGCK1; [2]) was 2.83 ± 1.69 µM.

For “RRESVDYTNNK [Unconventional Myosin IB, peptide 754-764 of E. histolytica Unconventional myosin IB (EHI_110810)]”, the “phosphorylation by EhAGCK2 WT” value (EhAGCK2; 20 μM EhAGCK2 WT, 250 μM ATP, 1 hr) was “recognised as substrates by EhAGCK2 WT; also recorded: accepted as substrates by EhAGCK2 WT”, the Km (EhAGCK2; ADP-Glo luminescence, 20 μM EhAGCK2 WT, 250 μM ATP, peptide 0-200 μM, 30°C, 60 min, standard buffer 40 mM Tris-Cl pH 7.5, 20 mM MgCl2, 2 mM DTT, Michaelis-Menten fit, read-out: Km (peptide substrate)) was 1.34 ± 0.57 µM and the Km (EhAGCK2; [1]) was 1.34 ± 0.57 µM. The Km (EhAGCK1; [2]) was 3.63 ± 2.58 µM.

“SALDNGTYSPLLSPTR [RhoGEF-1, peptide 236-251 of E. histolytica RhoGEF-1 (EHI_159500)]” gave a Km (EhAGCK2; [1]) of 0.271 ± 0.17 µM and a Km (EhAGCK1; [2]) of 4.42 ± 2.75 µM.

B1: KDD2: kinase-dead domain EhAGCK2 (K147A and D242A) (protein)
chain: MSVKTGWGIKEGGSWKTWKRRMFKLSEGKIEYFKDEGMTKKMGDIELSKVTHVLAVDQYKKRKNLIRIITPSRTYHISVNEESDRDSWVEAIRGMIGDNKEKKTQEEKEENKISMEDFDIITLLGKGAFGKVMLVKYKKEGKIYAMATVEKAQIIDSNEVEHILSEKVVLSQINNPFLVNMHYSFQTPTHLVFILDYCAGGELFSYLQKHPAGLPEVDVKFYAAQIVLALEHMHSTGIIYRAIKPENILFEKDGYLRMTDFGLAKSTKKGTTNTFCGTPEYLAPEVVEGLDYNEYIDWWGLGILIYEMLFTQSPFLAETMEELYENILQREPKYPSTKPITEECMNFINSLLIKEPSKRLTDPDQIKTHPWFNGFNFDDLYKKKLTPPYVPKIQSQTDTSNFDDEITQEEVDLKTGVEVVADNRFFTDFTYVQK
modifications: left off: His tag, end not stated, kept
For B1, the “autophosphorylation activity (words)” value (autophosphorylation) was “remain inactive”.

B2: EhAGCK1 WT: recombinant full-length wild-type His-tagged AGC family kinase 1 of E. histolytica (protein)
chain: MEEKTQGWLMKEGGSWKSWKKRYFVLDNDTLYYYKEQDKKTLMGTMNLSLATHITAVDNYHKKYENIIRICTPSRTFHLSAANEEERLAWLTSIICHSEKTNICKPRISSVPVTQKDFDVKCLLGKGAYGKVFLVEMISTHEIFAMKTIEKKQIIEYEEIEHTMSERRILSKLHHPFLVNLYYSFQTPTHLFYIIDYCPGGEFYYYLQKNGKVSEEDAKFYAAQILLAIEHLHSSNIVYRDIKPENILIGADGYLRLTDFGLSKENVTKENTTSTFCGTPEYLAPEVVVGKDYSEPVDWWGFGILIYEMIHGHAPFTSEDIQQLFQKIIHDPVSFPSASYPSADCKECIVMLLEKDPEKRLTDPNRIKSHCWFKGFDWEGLFQKKLSPPFVPVLKDKTDTSNFNEDIINETAKIDEGEVVDSKDYFNDFTYCK
modifications: left off: His tag, end not stated, kept
notes: recombinant full-length wild-type His-tagged AGC family kinase 1 of E. histolytica
For B2, the “kinase activity with HsGSK3 peptide in Mg2+ / without Mn2+ (words)” value (HsGSK3 peptide; 50 μM HsGSK3 peptide, 250 μM ATP) was “did not utilize the HsGSK3 peptide as a substrate”, the “kinase activity with HsGSK3 peptide in Mg2+ / without Mn2+ (words)” value (HsGSK3 peptide; 50 μM HsGSK3 peptide, 250 μM ATP, listed as EhAGCK1) was “could not accept HsGSK3 peptide as substrate” and the “ion preference for kinase activity” value (HsGSK3 peptide; MgCl2 versus MnCl2 buffer, HsGSK3 peptide) was “only active in the presence of MnCl2 buffer; also recorded: maximum kinase activity in the presence of Mn^2+”. The “increase in kinase activity with HsGSK3 peptide in presence of Mn2+” value (HsGSK3 peptide; Mn2+ present, 50 μM HsGSK3 peptide, 250 μM ATP) was 16 fold, the “Fold change (MgCl2: MnCl2)” value (HsGSK3 peptide; S1 Table, kinase activity in MgCl2 and MnCl2 buffers, 50 μM HsGSK3 peptide, 250 μM ATP, 60 min, 30°C) was 15.67 and the “autophosphorylation activity (words)” value (autophosphorylation) was “exhibited autophosphorylation activity”. The “autophosphorylation activity (words)” value (autophosphorylation; listed as EhAGCK1) was “able to accept biotin-ATP as substrate and underwent autophosphorylation”.
